The results in this text go back to the OligoGym collection.

The data set concerns the target HBV. The following applies: ASO.

Several values for one entry are separate records, joined by “and”; a condition that tells them apart may be missing. Identical values can stand only once. HELM strings list units from the 5' end as sugar, base in round brackets, then linkage (d deoxyribose, r ribose, m 2'-O-methyl, p phosphodiester). Methylation of C is not given here. [moe] = 2'-O-(2-methoxyethyl) (MOE); [cEt] = constrained ethyl (cEt); [sp] = phosphorothioate linkage

Turning to “RNA1{[moe](A)[sp].[cEt](C)[sp].d(C)[sp].d(A)[sp].d(C)[sp].d(T)[sp].d(G)[sp].d(A)[sp].d(A)[sp].d(C)[sp].d(A)[sp].d(A)[sp].[cEt](A)[sp].[moe](T)[sp].[cEt](G)[sp].[moe](G)}$$$$V2.0”, the target mRNA inhibition (HepG2, 0.07 µM) is 75% and 64%.

In the case of “RNA1{[moe](A)[sp].[cEt](G)[sp].[cEt](A)[sp].d(A)[sp].d(G)[sp].d(A)[sp].d(T)[sp].d(G)[sp].d(A)[sp].d(G)[sp].d(G)[sp].d(C)[sp].d(A)[sp].[cEt](T)[sp].[cEt](A)[sp].[moe](G)}$$$$V2.0”, under “HepG2, 0.07 µM”, the target mRNA inhibition is 64% and 63%.

Turning to “RNA1{[moe](A)[sp].[cEt](G)[sp].[cEt](A)[sp].d(A)[sp].d(G)[sp].d(T)[sp].d(C)[sp].d(C)[sp].d(A)[sp].d(C)[sp].d(C)[sp].d(A)[sp].d(C)[sp].[cEt](G)[sp].[cEt](A)[sp].[moe](G)}$$$$V2.0”, the target mRNA inhibition (HepG2, 0.07 µM) was 58% and 48%.

“RNA1{[moe](A)[sp].[cEt](G)[sp].[cEt](A)[sp].d(G)[sp].d(G)[sp].d(T)[sp].d(G)[sp].d(A)[sp].d(A)[sp].d(G)[sp].d(C)[sp].d(G)[sp].d(A)[sp].[cEt](A)[sp].[cEt](G)[sp].[moe](T)}$$$$V2.0”: the target mRNA inhibition (HepG2, 0.07 µM) was 68% and 74%.

Take “RNA1{[moe](A)[sp].[cEt](G)[sp].[cEt](G)[sp].d(A)[sp].d(G)[sp].d(T)[sp].d(T)[sp].d(C)[sp].d(C)[sp].d(G)[sp].d(C)[sp].d(A)[sp].d(G)[sp].[cEt](T)[sp].[cEt](A)[sp].[moe](T)}$$$$V2.0”: the target mRNA inhibition is 4% (HepG2, 0.0092593 µM); 35% (HepG2, 0.0277778 µM); 89% and 79% (HepG2, 0.07 µM); 70% (HepG2, 0.0833333 µM); 87% (HepG2, 0.25 µM).

As to “RNA1{[moe](A)[sp].[cEt](G)[sp].[cEt](G)[sp].d(T)[sp].d(G)[sp].d(A)[sp].d(A)[sp].d(G)[sp].d(C)[sp].d(G)[sp].d(A)[sp].d(A)[sp].d(G)[sp].[cEt](T)[sp].[cEt](G)[sp].[moe](C)}$$$$V2.0”, the target mRNA inhibition by setting is: (HepG2, 0.009375 µM) 21%; (HepG2, 0.01875 µM) 30%; (HepG2, 0.0375 µM) 39%; (HepG2, 0.07 µM) 79%; (HepG2, 0.075 µM) 61%; (HepG2, 0.15 µM) 79%. The target mRNA inhibition (HepG2, 0.3 µM) came to 91%.

“RNA1{[moe](A)[sp].[cEt](G)[sp].[cEt](T)[sp].d(T)[sp].d(C)[sp].d(C)[sp].d(G)[sp].d(C)[sp].d(A)[sp].d(G)[sp].d(T)[sp].d(A)[sp].d(T)[sp].[cEt](G)[sp].[cEt](G)[sp].[moe](A)}$$$$V2.0”: the target mRNA inhibition (HepG2, 0.0092593 µM) is 12%; the target mRNA inhibition (HepG2, 0.0277778 µM) amounted to 25%; the target mRNA inhibition (HepG2, 0.0833333 µM) is 73%; the target mRNA inhibition (HepG2, 0.25 µM) was determined as 84%.

Consider “RNA1{[moe](A)[sp].[cEt](G)[sp].d(C)[sp].d(G)[sp].d(A)[sp].d(A)[sp].d(G)[sp].d(T)[sp].d(G)[sp].d(C)[sp].d(A)[sp].d(C)[sp].[cEt](A)[sp].[moe](C)[sp].[cEt](G)[sp].[moe](G)}$$$$V2.0”, for which the target mRNA inhibition is 24% (HepG2, 0.0092593 µM); 62% (HepG2, 0.0277778 µM); 86% and 88% (HepG2, 0.07 µM); 84% (HepG2, 0.0833333 µM); 91% (HepG2, 0.25 µM).

Take “RNA1{[moe](A)[sp].[cEt](G)[sp].d(G)[sp].d(C)[sp].d(A)[sp].d(T)[sp].d(A)[sp].d(G)[sp].d(C)[sp].d(A)[sp].d(G)[sp].d(C)[sp].[cEt](A)[sp].[moe](G)[sp].[cEt](G)[sp].[moe](A)}$$$$V2.0”: the target mRNA inhibition (HepG2, 0.07 µM) was 66% and 52%.

On to “RNA1{[moe](A)[sp].[cEt](T)[sp].[cEt](G)[sp].d(A)[sp].d(G)[sp].d(G)[sp].d(C)[sp].d(A)[sp].d(T)[sp].d(A)[sp].d(G)[sp].d(C)[sp].d(A)[sp].[cEt](G)[sp].[cEt](C)[sp].[moe](A)}$$$$V2.0”, for which the target mRNA inhibition (HepG2, 0.0092593 µM) was 13%; the target mRNA inhibition (HepG2, 0.0277778 µM) was determined as 14%; the target mRNA inhibition (HepG2, 0.07 µM) was 65% and 83%; the target mRNA inhibition (HepG2, 0.0833333 µM) amounted to 55%; the target mRNA inhibition (HepG2, 0.25 µM) was determined as 70%.

Take “RNA1{[moe](A)[sp].[cEt](T)[sp].[cEt](T)[sp].d(T)[sp].d(A)[sp].d(T)[sp].d(G)[sp].d(C)[sp].d(C)[sp].d(T)[sp].d(A)[sp].d(C)[sp].d(A)[sp].[cEt](G)[sp].[cEt](C)[sp].[moe](C)}$$$$V2.0”: for the setting “HepG2, 0.07 µM”, the target mRNA inhibition was 57% and 46%.

In the case of “RNA1{[moe](A)[sp].[moe](A)[sp].[moe](C)[sp].[moe](C)[sp].d(A)[sp].d(C)[sp].d(T)[sp].d(G)[sp].d(A)[sp].d(A)[sp].d(C)[sp].d(A)[sp].d(A)[sp].[moe](A)[sp].[moe](T)[sp].[moe](G)[sp].[moe](G)}$$$$V2.0”, the target mRNA inhibition (HepG2, 0.07 µM) was 57% and 55%.

Take “RNA1{[moe](A)[sp].[moe](A)[sp].[moe](C)[sp].[moe](C)[sp].d(A)[sp].d(C)[sp].d(T)[sp].d(G)[sp].d(A)[sp].d(A)[sp].d(C)[sp].d(A)[sp].d(A)[sp].[moe](A)[sp].[moe](T)[sp].[moe](G)}$$$$V2.0”: under “HepG2, 0.07 µM”, the target mRNA inhibition is 52% and 54%.

Regarding “RNA1{[moe](A)[sp].[moe](A)[sp].[moe](C)[sp].[moe](T)[sp].[moe](G)[sp].d(G)[sp].d(A)[sp].d(G)[sp].d(C)[sp].d(C)[sp].d(A)[sp].d(C)[sp].d(C)[sp].d(A)[sp].[moe](G)[sp].[moe](C)}$$$$V2.0”, the target mRNA inhibition (HepG2, 0.07 µM) was 50% and 39%.

For “RNA1{[moe](A)[sp].[moe](A)[sp].[moe](G)[sp].[cEt](C)[sp].d(G)[sp].d(A)[sp].d(A)[sp].d(G)[sp].d(T)[sp].d(G)[sp].d(C)[sp].d(A)[sp].d(C)[sp].[cEt](A)[sp].[moe](C)[sp].[moe](G)[sp].[moe](G)}$$$$V2.0”, the target mRNA inhibition was 28% (HepG2, 0.009375 µM); 27% (HepG2, 0.01875 µM); 42% (HepG2, 0.0375 µM); 59% (HepG2, 0.075 µM); 81% (HepG2, 0.15 µM); 88% (HepG2, 0.3 µM).

As for “RNA1{[moe](A)[sp].[moe](A)[sp].[moe](G)[sp].[moe](C)[sp].[moe](G)[sp].[moe](A)[sp].d(A)[sp].d(G)[sp].d(T)[sp].d(G)[sp].d(C)[sp].d(A)[sp].d(C)[sp].d(A)[sp].d(C)[sp].[moe](G)[sp].[moe](G)}$$$$V2.0”, the target mRNA inhibition by setting is: (HepG2, 0.0092593 µM) 20%; (HepG2, 0.0277778 µM) 36%; (HepG2, 0.07 µM) 92% and 73%; (HepG2, 0.0833333 µM) 54%; (HepG2, 0.25 µM) 76%.

Regarding “RNA1{[moe](A)[sp].[moe](A)[sp].[moe](G)[sp].[moe](C)[sp].[moe](G)[sp].d(A)[sp].d(A)[sp].d(G)[sp].d(T)[sp].d(G)[sp].d(C)[sp].d(A)[sp].d(C)[sp].d(A)[sp].[moe](C)[sp].[moe](G)}$$$$V2.0”, for the setting “HepG2, 0.07 µM”, the target mRNA inhibition is 71% and 68%.

As for “RNA1{[moe](A)[sp].[moe](A)[sp].[moe](G)[sp].d(C)[sp].d(G)[sp].d(A)[sp].d(A)[sp].d(G)[sp].d(T)[sp].d(G)[sp].d(C)[sp].d(A)[sp].[moe](C)[sp].[moe](A)[sp].[moe](C)[sp].[moe](G)}$$$$V2.0”, where the note is “HepG2, 0.07 µM”, the target mRNA inhibition is 74% and 64%.

For the substance “RNA1{[moe](A)[sp].[moe](A)[sp].[moe](T)[sp].[moe](T)[sp].d(T)[sp].d(A)[sp].d(T)[sp].d(G)[sp].d(C)[sp].d(C)[sp].d(T)[sp].d(A)[sp].d(C)[sp].[moe](A)[sp].[moe](G)[sp].[moe](C)[sp].[moe](C)}$$$$V2.0”, for the setting “HepG2, 0.07 µM”, the target mRNA inhibition is 40% and 36%.

As to “RNA1{[moe](A)[sp].[moe](A)[sp].[moe](T)[sp].d(T)[sp].d(T)[sp].d(A)[sp].d(T)[sp].d(G)[sp].d(C)[sp].d(C)[sp].d(T)[sp].d(A)[sp].[moe](C)[sp].[moe](A)[sp].[moe](G)[sp].[moe](C)[sp].[moe](C)}$$$$V2.0”, the target mRNA inhibition (HepG2, 0.07 µM) was 56% and 39%.

For the substance “RNA1{[moe](A)[sp].[moe](A)[sp].d(G)[sp].d(A)[sp].d(T)[sp].d(G)[sp].d(A)[sp].d(G)[sp].d(G)[sp].d(C)[sp].d(A)[sp].[moe](T)[sp].[moe](A)[sp].[moe](G)[sp].[moe](C)[sp].[moe](A)[sp].[moe](G)}$$$$V2.0”, the target mRNA inhibition (HepG2, 0.07 µM) is 72% and 68%.

“RNA1{[moe](A)[sp].[moe](A)[sp].d(T)[sp].d(T)[sp].d(T)[sp].d(A)[sp].d(T)[sp].d(G)[sp].d(C)[sp].d(C)[sp].d(T)[sp].[moe](A)[sp].[moe](C)[sp].[moe](A)[sp].[moe](G)[sp].[moe](C)[sp].[moe](C)}$$$$V2.0”: the target mRNA inhibition (HepG2, 0.07 µM) is 52% and 48%.

For “RNA1{[moe](A)[sp].[moe](C)[sp].[moe](C)[sp].[moe](A)[sp].[moe](A)[sp].[moe](T)[sp].d(T)[sp].d(T)[sp].d(A)[sp].d(T)[sp].d(G)[sp].d(C)[sp].d(C)[sp].d(T)[sp].d(A)[sp].[moe](C)[sp].[moe](A)}$$$$V2.0”, the target mRNA inhibition (HepG2, 0.07 µM) was 5% and 18%.

Take “RNA1{[moe](A)[sp].[moe](C)[sp].[moe](C)[sp].[moe](A)[sp].[moe](A)[sp].d(T)[sp].d(T)[sp].d(T)[sp].d(A)[sp].d(T)[sp].d(G)[sp].d(C)[sp].d(C)[sp].d(T)[sp].[moe](A)[sp].[moe](C)[sp].[moe](A)}$$$$V2.0”: the target mRNA inhibition (HepG2, 0.07 µM) is 33% and 18%.

As to “RNA1{[moe](A)[sp].[moe](C)[sp].[moe](C)[sp].[moe](A)[sp].[moe](C)[sp].d(T)[sp].d(G)[sp].d(A)[sp].d(A)[sp].d(C)[sp].d(A)[sp].d(A)[sp].d(A)[sp].d(T)[sp].[moe](G)[sp].[moe](G)}$$$$V2.0”, where the note is “HepG2, 0.07 µM”, the target mRNA inhibition was 60% and 52%.

Regarding “RNA1{[moe](A)[sp].[moe](C)[sp].[moe](C)[sp].[moe](A)[sp].d(C)[sp].d(T)[sp].d(G)[sp].d(A)[sp].d(A)[sp].d(C)[sp].d(A)[sp].d(A)[sp].d(A)[sp].[moe](T)[sp].[moe](G)[sp].[moe](G)[sp].[moe](C)}$$$$V2.0”, the target mRNA inhibition (HepG2, 0.07 µM) was 60% and 61%.
